Experimental data: US20240245677A1, “SELECTED COMPOUNDS FOR TARGETED DEGRADATION OF BRD9” (C4 THERAPEUTICS, INC., priority 2021, published 2024)
Read-outs that look alike come from different tables or passages of the source.

Assays:
BRD7 = molecular target: T1, BRD7 (Homo sapiens, UniProt Q9NPI1); test: BRD7 HiBiT degradation assay in HEK293T.167 cells; format: cell-based
T1 construct: endogenously expressing BRD7 with HiBiT fusion tag via CRISPR; host or cells: HEK293T.167 (293T.167, BRD7-HiBiT HEK293, LgBiT by lentivirus)
T1 sequence (Q9NPI1 1-651): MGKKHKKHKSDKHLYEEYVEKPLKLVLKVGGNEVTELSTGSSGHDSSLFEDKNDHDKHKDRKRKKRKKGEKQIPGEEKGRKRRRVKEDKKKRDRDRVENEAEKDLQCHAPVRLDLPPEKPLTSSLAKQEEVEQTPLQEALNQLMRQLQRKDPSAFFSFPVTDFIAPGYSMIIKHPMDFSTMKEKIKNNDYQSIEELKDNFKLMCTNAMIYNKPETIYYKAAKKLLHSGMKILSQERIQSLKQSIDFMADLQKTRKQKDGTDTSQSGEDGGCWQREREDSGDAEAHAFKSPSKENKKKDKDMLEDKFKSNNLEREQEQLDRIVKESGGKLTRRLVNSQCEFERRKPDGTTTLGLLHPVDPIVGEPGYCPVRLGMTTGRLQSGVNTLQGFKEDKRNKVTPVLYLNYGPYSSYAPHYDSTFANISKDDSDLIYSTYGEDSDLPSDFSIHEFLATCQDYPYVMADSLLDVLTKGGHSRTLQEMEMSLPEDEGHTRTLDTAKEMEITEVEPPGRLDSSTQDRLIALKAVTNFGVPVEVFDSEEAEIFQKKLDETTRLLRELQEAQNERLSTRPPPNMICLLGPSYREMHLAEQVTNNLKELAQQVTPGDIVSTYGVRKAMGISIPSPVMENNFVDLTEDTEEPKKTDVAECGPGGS

[1] = HepG2 in vitro viability assay (CellTiter-Glo, 72 hours); format: cell-based, human; conditions: human, HepG2 cells, 72-hour treatment
Procedure: (§1) This assay assessed the general cytotoxicity of Compound 1 using the human hepatocarcinoma cell line HepG2. HepG2 cells were treated with Compound 1 for 72 hours and cellular viability was measured following the addition of CellTiter-Glo® 2.0 reagent (Promega) according to manufacturer's instructions. Agents were solubilized in DMSO and tested in the HepG2 cell line at concentrations ranging from 0.3 nM to 10 μM.
(§2) HepG2 cells were obtained from ATCC (Catalog No. HB-8065, Manassas, VA, USA) and maintained in MEM medium (Catalog No. 11095080, ThermoFisher Scientific, Waltham, MA, USA) supplemented with 10% heat inactivated fetal bovine serum (FBS) (Catalog No. 16000-044, Gibco, Grand Island, NY, USA) at 37° C. in an atmosphere of 5% CO2 in air. The cells were routinely sub-cultured to maintain cell density between 3×10^5-1.5×10^6 cells/mL, not to exceed 20 passages. Cells were washed with PBS, trypsinized for 5 min at 37° C., and resuspended in growth media. An aliquot was diluted 2× with Trypan Blue solution 0.4% (Catalog No. 15250061, ThermoFisher Scientific, Waltham, MA, USA) and cell count was determined. Cell concentration was adjusted with growth media to 1.0×10^4 cells/mL.
(§3) Compound 1 was prepared by dissolving neat compound in DMSO (Catalog No. D8418, Sigma-Aldrich, Inc., St. Louis, MO, USA) to generate 10 mM stock solution and stored at −20° C. 10 mM DMSO stock solution of Compound 1 was serially diluted (half log) in DMSO to generate 10-point dose series ([…]) in acoustic ready 384-well low dead volume microplates (Catalog No. LP-0200, Beckman Coulter Life Sciences, Indianapolis, IN, USA). Using an Echo 550 Acoustic Liquid Handler Handler (Beckman Coulter Life Sciences, Indianapolis, IN, USA), 50 nL of serially diluted compound solutions were dispensed directly in quadruplicate to each 384-well black TC-treated microplate (Catalog No. 3571, Corning, Glendale, CA, USA). 50 nL DMSO was transferred to all control wells.
(§4) 50 μL HepG2 cells suspended in growth media at 1.0×10^4 cells/mL (500 cells/well) were dispensed using a Multidrop Combi Reagent Dispenser (Catalog No. 5840300, ThermoFisher Scientific, Waltham, MA, USA) to each well of 384-well black TC-treated microplates containing quadruplicate concentration range of test compound and DMSO controls. Plates were incubated at 37° C., 5% CO2 for 72 hours. Final concentration of DMSO was 0.1% for all samples.
(§5) Additional cell plates (TO plates) were prepared by dispensing cells into a blank 384-well black TC-treated microplate to represent cytostatic controls and processed for viability detection immediately after cell dispensing.
(§6) HepG2 cell viability was determined based on quantification of ATP using CellTiter-Glo® 2.0 luminescent assay kit (Catalog No. G9243, Promega, Madison, WI, USA), which signals the presence of metabolically active cells. On Day 0 (Time 0) and Day 3 (72 hours) 25 μL CellTiter-Glo® reagent was added to each well of cell plates except the wells in column 24 and the luminescence was measured after 4 hours incubation at room temperature using an EnVision® Multilabel Reader (Catalog No. 2104-0010, Perkin Elmer Inc., Dumfries, VA, USA). Column 24 (cells without CellTiter-Glo® addition) was used as plate background or positive control (P).
(§7) Cytostatic control value (CT0) was computed from TO plate read using untreated cell signals (UT=0) and positive control signals (PT=0) as below.
(§8) Percent response of compound-treated samples at a time point T were calculated by normalizing the signal with P and DMSO treated negative (N) controls on the same microtiter plate and the CT0 control:
(§9) The Response % is thus 100% if the CellTiter-Glo® signal equals that of the DMSO treated controls (i.e., normal cell growth), 0% if it equals that of untreated cell at TO (i.e., cytostasis), and −100% if it equals the no CellTiter-Glo® reagent controls (i.e., complete cytotoxicity). […]

HepG2 cells = test: as above; format: cell-based, human; conditions: 72 hours
Procedure: as §1, §2, §3, §4, §5, §6, §7, §8, §9

For `COc1cc(-c2cn(C)c(=O)c(C)c2C)cc(OC)c1CN1CC[C@H](N2CCN(c3ccc(N[C@H]4CCC(=O)NC4=O)cc3F)CC2)C(F)(F)C1` [Compound 1, (S)-3-((4-(4-((S)-1-(2,6-dimethoxy-4-(1,4,5-trimethyl-6-oxo-1,6-dihydropyridin-3-yl)benzyl)-3,3-difluoropiperidin-4-yl)piperazin-1-yl)-3-fluorophenyl)amino)-piperidine-2,6-dione], the “% BRD7 Remaining Relative to Vehicle Control at 24 hr, Mean” value (BRD7; 0.101 nM) was 99.8%, the “% BRD7 Remaining Relative to Vehicle Control at 24 hr, Mean” value (BRD7; 0.318 nM) was 101.3% and the “% BRD7 Remaining Relative to Vehicle Control at 24 hr, Mean” value (BRD7; 1.01 nM) was 101.0%. For the same molecule, the “% BRD7 Remaining Relative to Vehicle Control at 24 hr, Mean” value (BRD7; 3.17 nM) was 99.8%, the “% BRD7 Remaining Relative to Vehicle Control at 24 hr, Mean” value (BRD7; 10.0 nM) was 102.4% and the “% BRD7 Remaining Relative to Vehicle Control at 24 hr, Mean” value (BRD7; 31.7 nM) was 103.4%. The “% BRD7 Remaining Relative to Vehicle Control at 24 hr, Mean” value (BRD7; 100 nM) was 101.0%, the “% BRD7 Remaining Relative to Vehicle Control at 24 hr, Mean” value (BRD7; 317 nM) was 102.3% and the “% BRD7 Remaining Relative to Vehicle Control at 24 hr, Mean” value (BRD7; 1000 nM) was 106.3%. The “% BRD7 Remaining Relative to Vehicle Control at 24 hr, Mean” value (BRD7; 3161 nM) was 117.4%, the “% BRD7 Remaining Relative to Vehicle Control at 24 hr, Mean” value (BRD7; 9990 nM) was 143.3% and the DC50 (BRD7; BRD7-HiBiT, 293T.167 cells, 24 hours, read-out: Mean DC50) was > 10 µM. For the same molecule, the Emax (BRD7; BRD7-HiBiT, 293T.167 cells, 24 hours, read-out: Mean Emax (%) ± SD) was 97.6 ± 6.41%, the “effect on the degradation of BRD7” value (BRD7; concentrations up to 10 μM, 24 hours) was “no significant effect” and the DC50 (BRD7; summary statement, read-out: DC50 against BRD7) was > 1 µM. The viability at 72 h, 0.00032 µM ([1]; 0.32 nM) was 111%, the viability at 72 h, 0.00101 µM ([1]; 1.01 nM) was 102% and the viability at 72 h, 0.00317 µM ([1]; 3.17 nM) was 97.7%. The viability at 72 h, 0.01 µM ([1]; 10.0 nM) was 91.6%, the viability at 72 h, 0.0317 µM ([1]; 31.7 nM) was 97.4% and the viability at 72 h, 0.1 µM ([1]; 100 nM) was 92.5%. For the same molecule, the viability at 72 h, 0.317 µM ([1]; 317 nM) was 102%, the viability at 72 h, 1 µM ([1]; 1000 nM) was 79% and the viability at 72 h, 3.161 µM ([1]; 3161 nM) was 84.6%. For the same molecule, the viability at 72 h, 9.99 µM ([1]; 9990 nM) was 66.6%, the inhibition at 10 µM (HepG2 cells; Homo sapiens, HepG2, read-out: growth inhibition of HepG2 cells relative to 0.1% DMSO controls, 10 μM) was 33.4 ± 9.9% and the “effect on viability / growth of HepG2 cells” value (HepG2 cells; concentrations up to 3.3 μM) was “No significant effect”.
